# Target: T1, human mAChR M4 (Homo sapiens, UniProt P08173)
# T1 construct: expressed in transfected cells
# T1 sequence (P08173 1-479): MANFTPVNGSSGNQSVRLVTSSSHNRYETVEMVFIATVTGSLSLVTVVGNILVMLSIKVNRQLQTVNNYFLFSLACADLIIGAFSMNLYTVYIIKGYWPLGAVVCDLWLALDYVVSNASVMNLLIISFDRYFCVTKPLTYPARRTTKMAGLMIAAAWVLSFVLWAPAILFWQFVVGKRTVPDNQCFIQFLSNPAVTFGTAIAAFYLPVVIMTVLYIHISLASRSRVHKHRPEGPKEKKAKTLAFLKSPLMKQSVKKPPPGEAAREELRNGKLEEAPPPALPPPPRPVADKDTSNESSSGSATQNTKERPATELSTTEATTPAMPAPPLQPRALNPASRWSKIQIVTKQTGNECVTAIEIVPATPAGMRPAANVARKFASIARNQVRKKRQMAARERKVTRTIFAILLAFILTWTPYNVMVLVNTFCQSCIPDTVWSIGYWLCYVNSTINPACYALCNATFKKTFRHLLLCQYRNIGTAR
# Experiment: mAChR M4 cell-based functional assay (calcium mobilization, CHO-K1 hM4-Gqi5 cells)
# Details: for Emax at 30 µM: CHO-K1, % ACh maximum at 30 μM, human M4; for EC50: positive allosteric modulator activity, increase in the EC20 acetylcholine response, CHO-K1 hM4-Gqi5 cells, read-out: Human M4 EC50; for Emax: CHO-K1
# Procedure, shortened: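 Fluorescent calcium read-out (Fluo-4 AM, FDSS, 1 Hz) in hM4-Gqi5 CHO-K1 cells, 11-point 1:3 compound series. Agonism scored on compound addition, PAM activity as increase of the 144 s EC20 acetylcholine response, antagonism as decrease of the 230 s EC80 response; four-parameter logistic fits give EC50 and Emax.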
SMILES,Emax at 30 µM [%],EC50 [µM],Emax [%]
"Cc1c(C(=O)NCc2cncs2)nnc(N2CCc3ncccc3C2)c1C [compound 138, 6-(7,8-dihydro-5H-1,6-naphthyridin-6-yl)-4,5-dimethyl-N-(thiazol-5-ylmethyl)pyridazine-3-carboxamide]",96,1.11,–
"Cc1c(C#N)nnc(N2CCc3ncc(-c4cc(F)nc(F)c4)cc3C2)c1C [compound 75, 6-[3-(2,6-difluoro-4-pyridyl)-7,8-dihydro-5H-1,6-naphthyridin-6-yl]-4,5-dimethyl-pyridazine-3-carbonitrile]",58,0.666,–
"Cc1cc(C#N)cnc1N1CCc2ncccc2C1 [compound 45, 6-(7,8-dihydro-5H-1,6-naphthyridin-6-yl)-5-methyl-pyridine-3-carbonitrile]",–,1.19,97
"Cc1cc(C#N)cnc1N1CCc2ncc(Nc3cccc(Cl)c3F)cc2C1 [compound 114, 6-[3-(3-chloro-2-fluoro-anilino)-7,8-dihydro-5H-1,6-naphthyridin-6-yl]-5-methyl-pyridine-3-carbonitrile]",100,0.969,–
"Cc1cc(C(=O)NCc2ccc(C(F)(F)F)cn2)cnc1N1CCc2ncccc2C1 [compound 144, 6-(7,8-dihydro-5H-1,6-naphthyridin-6-yl)-5-methyl-N-[[5-(trifluoromethyl)-2-pyridyl]methyl]pyridine-3-carboxamide]",61,6.09,–
"Cc1nc2c(c(N3CCc4ncc(C(F)(F)F)cc4C3)n1)CCCC2 [compound 268, 2-methyl-4-(3-(trifluoromethyl)-7,8-dihydro-1,6-naphthyridin-6(5H)-yl)-5,6,7,8-tetrahydroquinazoline]",68,4.19,–
"Cc1nn(C)cc1-c1cnc2c(c1)CN(c1nc(NC3CCOC3)nc(C)c1C)CC2 (stereo not shown) [compound 273, 4-(3-(1,3-dimethyl-1H-pyrazol-4-yl)-7,8-dihydro-1,6-naphthyridin-6(5H)-yl)-5,6-dimethyl-N-(tetrahydrofuran-3-yl)pyrimidin-2-amine]",92,0.639,–
"Cc1cc(C(=O)NCc2cnc(Cl)s2)cnc1N1CCc2ncc(-c3cn(C)nc3C)cc2C1 [Example 455, N-((2-chlorothiazol-5-yl)methyl)-6-(3-(1,3-dimethyl-1H-pyrazol-4-yl)-7,8-dihydro-1,6-naphthyridin-6(5H)-yl)-5-methylnicotinamide]",93,0.581,–
"Cc1cc(C#N)nnc1N1CCc2ncc(N3CCN(C)C(=O)C3)cc2C1 [Example 410, 5-methyl-6-(3-(4-methyl-3-oxopiperazin-1-yl)-7,8-dihydro-1,6-naphthyridin-6(5H)-yl)pyridazine-3-carbonitrile]",89,3.8,–
"Cc1cnc2c(c1)CN(c1nnc(C(=O)NCc3ccncc3)c(C)c1C)CC2 [Example 486, 4,5-dimethyl-6-(3-methyl-7,8-dihydro-1,6-naphthyridin-6(5H)-yl)-N-(pyridin-4-ylmethyl)pyridazine-3-carboxamide]",97,0.286,–
"Cc1nc(C)c(C)c(N2CCc3ncc(-c4ccc(-n5ccnc5)nc4)cc3C2)n1 [compound 232, 3-(6-(1H-imidazol-1-yl)pyridin-3-yl)-6-(2,5,6-trimethylpyrimidin-4-yl)-5,6,7,8-tetrahydro-1,6-naphthyridine]",61,0.263,–
"Cc1cc(C#N)nnc1N1CCc2ncc(-c3cnn(C4CC4)c3)cc2C1 [Example 361, 6-(3-(1-cyclopropyl-1H-pyrazol-4-yl)-7,8-dihydro-1,6-naphthyridin-6(5H)-yl)-5-methylpyridazine-3-carbonitrile]",115,0.786,–
"Cc1cnccc1CNC(=O)c1cnc(N2CCc3ncccc3C2)c(C)c1 [compound 130, 6-(7,8-dihydro-5H-1,6-naphthyridin-6-yl)-5-methyl-N-[(3-methyl-4-pyridyl)methyl]pyridine-3-carboxamide]",82,0.507,–
"Cc1c(C#N)nnc(N2CCc3ncccc3C2)c1C [compound 118, 6-(7,8-dihydro-5H-1,6-naphthyridin-6-yl)-4,5-dimethyl-pyridazine-3-carbonitrile]",–,2.82,92
"Cc1cc(C#N)cnc1N1CCc2ncc(Nc3cccnc3F)cc2C1 [compound 166, 6-[3-[(2-fluoro-3-pyridyl)amino]-7,8-dihydro-5H-1,6-naphthyridin-6-yl]-5-methyl-pyridine-3-carbonitrile]",–,0.0451,106

# Second part, led by results:
Emax at 30 µM [%],EC50 [µM],SMILES,Emax [%]
103,0.054,"Cc1cc(C(=O)N2CC(Cl)C2)nnc1N1CCc2ncc(N3CCO[C@H](C)C3)cc2C1 [Example 538, (R)-(3-chloroazetidin-1-yl)(5-methyl-6-(3-(2-methylmorpholino)-7,8-dihydro-1,6-naphthyridin-6(5H)-yl)pyridazin-3-yl)methanone]",–
49,0.258,"Cc1cc(C#N)cnc1N1CCc2ncc(-c3ccnc(C#N)c3)cc2C1 [Example 336, 4-(6-(5-cyano-3-methylpyridin-2-yl)-5,6,7,8-tetrahydro-1,6-naphthyridin-3-yl)picolinonitrile]",–
80,0.021,"Cc1cc(C(=O)NC2(c3cccnc3)CC2)nnc1N1CCc2ncc(N3CCCn4nccc43)cc2C1 [Example 553, 6-(3-(6,7-dihydropyrazolo[1,5-a]pyrimidin-4(5H)-yl)-7,8-dihydro-1,6-naphthyridin-6(5H)-yl)-5-methyl-N-(1-(pyridin-3-yl)cyclopropyl)pyridazine-3-carboxamide]",–
71,0.041,"[2H]C([2H])([2H])c1cnc2c(c1)CN(c1nnc(C(=O)N3CC(F)(F)C3)cc1C)CC2 [Example 576, (3,3-difluoroazetidin-1-yl)(5-methyl-6-(3-(methyl-d3)-7,8-dihydro-1,6-naphthyridin-6(5H)-yl)pyridazin-3-yl)methanone]",–
95,0.004,"Cc1cc(Nc2cnc3c(c2)CN(c2ncc(C#N)cc2C)CC3)c(F)cn1 [Example 616, 6-(3-((5-fluoro-2-methylpyridin-4-yl)amino)-7,8-dihydro-1,6-naphthyridin-6(5H)-yl)-5-methylnicotinonitrile]",–
84,0.127,"Cc1cc(C#N)nnc1N1CCc2ncc(Oc3cc(F)ccc3F)cc2C1 [Example 357, 6-(3-(2,5-difluorophenoxy)-7,8-dihydro-1,6-naphthyridin-6(5H)-yl)-5-methylpyridazine-3-carbonitrile]",–
95,0.123,"Cc1cc(-c2cnc3c(c2)CN(c2nc(C)nc(Cl)c2C)CC3)ccn1 [compound 93, 6-(6-chloro-2,5-dimethyl-pyrimidin-4-yl)-3-(2-methyl-4-pyridyl)-7,8-dihydro-5H-1,6-naphthyridine]",–
90,0.148,"Cc1cc2n(n1)CCCN2c1cnc2c(c1)CN(c1nnc(C#N)c(C)c1C)CC2 [Example 363, 4,5-dimethyl-6-(3-(2-methyl-6,7-dihydropyrazolo[1,5-a]pyrimidin-4(5H)-yl)-7,8-dihydro-1,6-naphthyridin-6(5H)-yl)pyridazine-3-carbonitrile]",–
108,0.138,"Cc1cnc2c(c1)CN(c1ncc(C(=O)NCc3cncs3)cc1C)CC2 [Example 439, 5-methyl-6-(3-methyl-7,8-dihydro-1,6-naphthyridin-6(5H)-yl)-N-(thiazol-5-ylmethyl)nicotinamide]",–
90,0.169,"Cc1nc(Cl)c(C)c(N2CCc3ncc(-c4cn(C)nc4C)cc3C2)n1 [compound 192, 6-(6-chloro-2,5-dimethyl-pyrimidin-4-yl)-3-(1,3-dimethylpyrazol-4-yl)-7,8-dihydro-5H-1,6-naphthyridine]",–
109,0.074,"Cc1cc(C(=O)NC2(C#N)CC2)nnc1N1CCc2ncc(C(F)(F)F)cc2C1 [Example 523, N-(1-cyanocyclopropyl)-5-methyl-6-(3-(trifluoromethyl)-7,8-dihydro-1,6-naphthyridin-6(5H)-yl)pyridazine-3-carboxamide]",–
98,0.142,"Cc1cc(C#N)cnc1N1CCc2ncc(-c3c(C)nn(C)c3C)cc2C1 [compound 107, 5-methyl-6-[3-(1,3,5-trimethylpyrazol-4-yl)-7,8-dihydro-5H-1,6-naphthyridin-6-yl]pyridine-3-carbonitrile]",–
85,0.098,"Cc1c(C#N)nnc(N2CCc3ncc(C4CC4)cc3C2)c1C [Example 317, 6-(3-cyclopropyl-7,8-dihydro-1,6-naphthyridin-6(5H)-yl)-4,5-dimethylpyridazine-3-carbonitrile]",–
115,0.025,"COC1CN(C(=O)c2cc(C)c(N3CCc4ncc(N5CCCn6nccc65)cc4C3)nn2)C1 [Example 548, (6-(3-(6,7-dihydropyrazolo[1,5-a]pyrimidin-4(5H)-yl)-7,8-dihydro-1,6-naphthyridin-6(5H)-yl)-5-methylpyridazin-3-yl)(3-methoxyazetidin-1-yl)methanone]",–

# Source: patent US20250230155A1 (Vanderbilt University, priority 2021, published 2025)
